Assay results as given in patent publication US10214508B2, “Nitrogen-containing heterocyclic compound” (Takeda Pharmaceutical Company Limited, priority 2014, dated 2019).
Structures can show the parent of a compound that is named as a salt.

target: T1, human M1 receptor (hCHRM1) (Homo sapiens, UniProt P11229); test: Measurement of M1 receptor positive allosteric modulator (M1PAM) activity, calcium fluorescence (FLIPRtetra); format: cell-based; details: 10 μM test compound with acetylcholine at EC20 (final 0.6-0.8 nM); 100% = acetylcholine 1 μM, 0% = DMSO; CHO-K1 cells expressing hCHRM1
T1 construct: expressed in transfected cells
T1 sequence (P11229 1-460): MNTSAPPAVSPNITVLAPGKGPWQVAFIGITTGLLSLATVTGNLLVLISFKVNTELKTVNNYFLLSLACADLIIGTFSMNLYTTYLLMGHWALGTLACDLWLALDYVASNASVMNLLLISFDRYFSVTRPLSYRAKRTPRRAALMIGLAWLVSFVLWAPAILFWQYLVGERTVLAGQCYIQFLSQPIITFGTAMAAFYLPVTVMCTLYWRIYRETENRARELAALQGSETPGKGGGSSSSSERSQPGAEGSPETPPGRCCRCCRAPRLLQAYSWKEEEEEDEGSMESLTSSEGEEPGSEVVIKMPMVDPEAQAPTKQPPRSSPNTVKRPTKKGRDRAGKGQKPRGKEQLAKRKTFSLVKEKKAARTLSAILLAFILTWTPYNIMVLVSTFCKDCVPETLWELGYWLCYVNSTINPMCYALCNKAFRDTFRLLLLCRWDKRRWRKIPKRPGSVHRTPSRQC
Experimental: Measurement of M1 Receptor Positive Allosteric Modulator (M1PAM) Activity
The activity of a test compound in the presence of acetylcholine at EC20 concentration (final concentration 0.6-0.8 nM), which affords an action corresponding to about 20% of the maximum activity, was measured as PAM activity. The method is as follows. CHO-K1 cells stably expressing a human M1 receptor (hCHRM1) were plated on a 384-well black clear bottom plate (BD Falcon) at 5,000 cells/well, and cultured in an incubator at 37° C., 5% CO2 for 1 day. The medium in the cell plate was removed, and assay buffer A containing calcium indicator (Recording medium (DOJINDO LABORATORIES), 0.1% BSA (Wako Pure Chemical Industries, Ltd.), 2.5 μg/mL Fluo-4 AM (DOJINDO LABORATORIES), 0.08% Pluronic F127 (DOJINDO LABORATORIES), 1.25 mM probenecid (DOJINDO LABORATORIES)) was added at 30 μL/well. The cells were left standing in the incubator at 37° C., 5% CO2 for 30 min, and further left standing at room temperature for 30 min. A test compound prepared by diluting with assay buffer B (HBSS (Invitrogen), 20 mM HEPES (Invitrogen), 0.1% BSA) containing 2.4-3.2 nM acetylcholine was added at 10 μL/well, and the fluorescence was measured by FLIPRtetra (Molecular Devices) for 1 min every for 1 second. With the definition that the amount of change in the fluorescence on addition of acetylcholine (final concentration 1 μM) is 100% and that on addition of DMSO instead of a test compound is 0%, the activity (%) of the test compound was calculated, and the inflection point in the concentration-dependent curve of the test compound was calculated as IP values.

| Compound | activity (%) at 10 μM |
| --- | --- |
| Cc1cnc(C(=O)N[C@H]2CCCC[C@@H]2O)cc1Cc1ccc(-n2cccn2)cc1 (relative stereo) [Example 4, N-(trans-2-hydroxycyclohexyl)-5-methyl-4-(4-(1H-pyrazol-1-yl)benzyl)pyridine-2-carboxamide] | 98% |
| Cc1cnc(C(=O)N[C@H]2COCC[C@@H]2O)cc1Cc1ccc(-c2ccn(C)n2)cc1 [Example 2, 1,5-anhydro-2,4-dideoxy-2-(((5-methyl-4-(4-(1-methyl-1H-pyrazol-3-yl)benzyl)pyridin-2-yl)carbonyl)amino)-L-threo-pentitol] | 100% |
| Cc1cnc(C(=O)N[C@H]2CCC[C@@H]2O)cc1Cc1ccc(-n2cccn2)cc1 [Example 5, N-((1S,2S)-2-hydroxycyclopentyl)-5-methyl-4-(4-(1H-pyrazol-1-yl)benzyl)pyridine-2-carboxamide] | 91% |
| O=C(N[C@H]1CCCC[C@@H]1O)c1cc(Cc2ccc(-n3cccn3)cc2)c(Cl)cn1 [Example 6, 5-chloro-N-((1S,2S)-2-hydroxycyclohexyl)-4-(4-(1H-pyrazol-1-yl)benzyl)pyridine-2-carboxamide] | 108% |
| O=C(N[C@H]1CCC[C@@H]1O)c1cc(Cc2ccc(-n3cccn3)cc2)c(Cl)cn1 [Example 7, 5-chloro-N-((1S,2S)-2-hydroxycyclopentyl)-4-(4-(1H-pyrazol-1-yl)benzyl)pyridine-2-carboxamide] | 104% |
| O=C(N[C@H]1COCC[C@@H]1O)c1cc(Cc2ccc(-n3cccn3)cc2)c(Cl)cn1 [Example 8, 1,5-anhydro-2-(((5-chloro-4-(4-(1H-pyrazol-1-yl)benzyl)pyridin-2-yl)carbonyl)amino)-2,4-dideoxy-L-threo-pentitol Hydrochloride] | 92% |
| Cc1cnc(C(=O)N[C@H]2CCCC[C@@H]2O)cc1Cc1ccc(-c2ccn(C)n2)cc1 [Example 9, N-((1S,2S)-2-hydroxycyclohexyl)-5-methyl-4-(4-(1-methyl-1H-pyrazol-3-yl)benzyl)pyridine-2-carboxamide] | 91% |
| Cc1cnc(C(=O)N[C@H]2CCCC[C@@H]2O)cc1Cc1ccc(-c2ccn(C)n2)cc1F [Example 10, 4-(2-fluoro-4-(1-methyl-1H-pyrazol-3-yl)benzyl)-N-((1S,2S)-2-hydroxycyclohexyl)-5-methylpyridine-2-carboxamide] | 89% |
| Cc1cnc(C(=O)N[C@H]2CCC[C@@H]2O)cc1Cc1ccc(-c2ccn(C)n2)cc1F [Example 11, 4-(2-fluoro-4-(1-methyl-1H-pyrazol-3-yl)benzyl)-N-((1S,2S)-2-hydroxycyclopentyl)-5-methylpyridine-2-carboxamide] | 98% |
| Cc1cnc(C(=O)N[C@H]2CCCC[C@@H]2O)cc1Cc1ccc(-n2cccn2)cc1F [Example 12, 4-(2-fluoro-4-(1H-pyrazol-1-yl)benzyl)-N-((1S,2S)-2-hydroxycyclohexyl)-5-methylpyridine-2-carboxamide] | 113% |
| Cc1cnc(C(=O)N[C@H]2CCC[C@@H]2O)cc1Cc1ccc(-n2cccn2)cc1F [Example 13, 4-(2-fluoro-4-(1H-pyrazol-1-yl)benzyl)-N-((1S,2S)-2-hydroxycyclopentyl)-5-methylpyridine-2-carboxamide] | 92% |
| Cc1cnc(C(=O)N[C@H]2CCC[C@@H]2O)cc1Cc1ccc(-c2cn(C)nc2C)cc1 [Example 14, 4-(4-(1,3-dimethyl-1H-pyrazol-4-yl)benzyl)-N-((1S,2S)-2-hydroxycyclopentyl)-5-methylpyridine-2-carboxamide Dihydrochloride] | 100% |
| Cc1cnc(C(=O)N[C@H]2CCCC[C@@H]2O)cc1Cc1ccc(-c2cn(C)nc2C)cc1 [Example 15, 4-(4-(1,3-dimethyl-1H-pyrazol-4-yl)benzyl)-N-((1S,2S)-2-hydroxycyclohexyl)-5-methylpyridine-2-carboxamide] | 107% |

Now from value to compound:

| activity (%) at 10 μM | Compound |
| --- | --- |
| 89% | COc1cnc(C(=O)N[C@H]2CCCC[C@@H]2O)cc1Cc1ccc(-c2cnn(C)c2)nc1 (relative stereo) [Example 58, N-(trans-2-hydroxycyclohexyl)-5-methoxy-4-((6-(1-methyl-1H-pyrazol-4-yl)pyridin-3-yl)methyl)pyridine-2-carboxamide] |
| 91% | Cc1cnc(C(=O)N[C@H]2COCC[C@@H]2O)cc1Cc1ccc(-c2ccn(C)n2)cc1F [Example 16, 1,5-anhydro-2,4-dideoxy-2-(((4-(2-fluoro-4-(1-methyl-1H-pyrazol-3-yl)benzyl)-5-methylpyridin-2-yl)carbonyl)amino)-L-threo-pentitol] |
| 98% | Cc1cnc(C(=O)N[C@H]2COCC[C@@H]2O)cc1Cc1ccc(-n2cccn2)cc1F [Example 17, 1,5-anhydro-2,4-dideoxy-2-(((4-(2-fluoro-4-(1H-pyrazol-1-yl)benzyl)-5-methylpyridin-2-yl)carbonyl)amino)-L-threo-pentitol] |
| 105% | COC1CCCCC1NC(=O)c1cc(Cc2ccc(-c3ccn(C)n3)cc2)c(C)cn1 (stereo not shown) [Example 18, N-(2-methoxycyclohexyl)-5-methyl-4-(4-(1-methyl-1H-pyrazol-3-yl)benzyl)pyridine-2-carboxamide] |
| 104% | COc1ccc(Cc2cc(C(=O)N[C@H]3CCCC[C@@H]3O)ncc2C)cc1 [Example 19, N-((1S,2S)-2-hydroxycyclohexyl)-4-(4-methoxybenzyl)-5-methylpyridine-2-carboxamide] |
| 75% | Cc1cnc(C(=O)NC2(CO)CCCC2)cc1Cc1ccc(-c2ccn(C)n2)cc1 [Example 20, N-(1-(hydroxymethyl)cyclopentyl)-5-methyl-4-(4-(1-methyl-1H-pyrazol-3-yl)benzyl)pyridine-2-carboxamide] |
| 89% | Cc1cnc(C(=O)NC2CCOCC2O)cc1Cc1ccc(-c2ccn(C)n2)cc1 (stereo not shown) [Example 21, 1,5-anhydro-2,3-dideoxy-3-(((5-methyl-4-(4-(1-methyl-1H-pyrazol-3-yl)benzyl)pyridin-2-yl)carbonyl)amino)pentitol] |
| 77% | Cc1cnc(C(=O)NC2CC2(F)F)cc1Cc1ccc(-c2ccn(C)n2)cc1 (stereo not shown) [Example 22, N-(2,2-difluorocyclopropyl)-5-methyl-4-(4-(1-methyl-1H-pyrazol-3-yl)benzyl)pyridine-2-carboxamide] |
| 84% | Cc1cnc(C(=O)NC2(CO)CC2)cc1Cc1ccc(-c2ccn(C)n2)cc1 [Example 23, N-(1-(hydroxymethyl)cyclopropyl)-5-methyl-4-(4-(1-methyl-1H-pyrazol-3-yl)benzyl)pyridine-2-carboxamide] |
| 87% | Cc1cnc(C(=O)N[C@H]2c3ccccc3C[C@H]2O)cc1Cc1ccc(-c2ccn(C)n2)cc1 [Example 24, N-((1S,2R)-2-hydroxy-2,3-dihydro-1H-inden-1-yl)-5-methyl-4-(4-(1-methyl-1H-pyrazol-3-yl)benzyl)pyridine-2-carboxamide] |
| 85% | Cc1cnc(C(=O)NC2CC(F)(F)CCC2O)cc1Cc1ccc(-c2ccn(C)n2)cc1 (stereo not shown) [Example 25, N-(5,5-difluoro-2-hydroxycyclohexyl)-5-methyl-4-(4-(1-methyl-1H-pyrazol-3-yl)benzyl)pyridine-2-carboxamide] |
| 59% | Cc1cnc(C(=O)NC2COC2)cc1Cc1ccc(-c2ccn(C)n2)cc1 [Example 26, 5-methyl-4-(4-(1-methyl-1H-pyrazol-3-yl)benzyl)-N-(oxetan-3-yl)pyridine-2-carboxamide] |
| 88% | Cc1cnc(C(=O)NC2CCOCC2)cc1Cc1ccc(-c2ccn(C)n2)cc1 [Example 27, 5-methyl-4-(4-(1-methyl-1H-pyrazol-3-yl)benzyl)-N-(tetrahydro-2H-pyran-4-yl)pyridine-2-carboxamide] |
| 73% | Cc1cnc(C(=O)NC2CC2)cc1Cc1ccc(-c2ccn(C)n2)cc1 [Example 28, N-cyclopropyl-5-methyl-4-(4-(1-methyl-1H-pyrazol-3-yl)benzyl)pyridine-2-carboxamide] |
| 93% | Cc1cnc(C(=O)NC2CCC2)cc1Cc1ccc(-c2ccn(C)n2)cc1 [Example 29, N-cyclobutyl-5-methyl-4-(4-(1-methyl-1H-pyrazol-3-yl)benzyl)pyridine-2-carboxamide] |
